In the supplement of paper PMC13380429:

How the values were obtained:
Details in all cases: 72 h
[1] = tested on: Caco-2; test: cell viability relative to DMSO; higher = less toxic
[2] = tested on: Calu-3; test: as above
[3] = tested on: HepG2; test: as above
[4] = tested on: U2OS; test: as above
[5] = tested on: Vero E6; test: as above
[6] = tested on: Caco-2; test: relative viability EC50 (midpoint between 100% and the lowest measured viability); higher = less toxic
[7] = tested on: Calu-3; test: as above
[8] = tested on: HepG2; test: as above
[9] = tested on: U2OS; test: as above
[10] = tested on: Vero E6; test: as above
[11] = tested on: Caco-2; test: drug sensitivity score (DSS) for viability; higher = more toxic; extreme values may be limits of the assay
[12] = tested on: Calu-3; test: as above
[13] = tested on: HepG2; test: as above
[14] = tested on: U2OS; test: as above
[15] = tested on: Vero E6; test: as above

SMILES	cell viability ([1]; 1 nM) [%]	cell viability ([1]; 10 nM) [%]	cell viability ([1]; 100 nM) [%]	cell viability ([1]; 1000 nM) [%]	cell viability ([1]; 10000 nM) [%]	cell viability ([2]; 1 nM) [%]	cell viability ([2]; 10 nM) [%]	cell viability ([2]; 100 nM) [%]	cell viability ([2]; 1000 nM) [%]	cell viability ([2]; 10000 nM) [%]	cell viability ([3]; 1 nM) [%]	cell viability ([3]; 10 nM) [%]	cell viability ([3]; 100 nM) [%]	cell viability ([3]; 1000 nM) [%]	cell viability ([3]; 10000 nM) [%]	cell viability ([4]; 1 nM) [%]	cell viability ([4]; 10 nM) [%]	cell viability ([4]; 100 nM) [%]	cell viability ([4]; 1000 nM) [%]	cell viability ([4]; 10000 nM) [%]	cell viability ([5]; 1 nM) [%]	cell viability ([5]; 10 nM) [%]	cell viability ([5]; 100 nM) [%]	cell viability ([5]; 1000 nM) [%]	cell viability ([5]; 10000 nM) [%]	relative viability EC50 [6] [µM]	relative viability EC50 [7] [µM]	relative viability EC50 [8] [µM]	relative viability EC50 [9] [µM]	relative viability EC50 [10] [µM]	drug sensitivity score [11]	drug sensitivity score [12]	drug sensitivity score [13]	drug sensitivity score [14]	drug sensitivity score [15]
CC(=O)O[C@@]12CO[C@@H]1C[C@H](O)[C@@]1(C)C(=O)[C@H](O)C3=C(C)[C@@H](O)C[C@@](O)([C@@H](OC(=O)c4ccccc4)[C@H]21)C3(C)C [10-deacetylbaccatin]	102	110	92.6	99	102	105	95.6	94.9	97.4	108	93.9	105	97.3	108	108	98.4	99.3	104	102	107	97.6	96.1	95.6	95.1	106	> 10	> 10	> 10	> 10	> 10	0	0	0	0	0
CC(=N)NCc1cccc(CN)c1 [1400W]	112	92.6	103	92.2	103	102	93	91.2	108	109	102	100	105	94.4	97	103	94.6	104	98	104	103	98.3	99.9	102	97.7	> 10	> 10	> 10	> 10	> 10	0	0	0	0	0
COc1c(Nc2ccc(S(C)(=O)=O)nc2C)ncnc1OC1CCN(C(=O)OC(C)C)CC1 [APD597]	96.5	96.2	103	93.4	90.2	106	105	106	109	98.7	99.6	104	94.4	94.6	86.3	99.5	99.1	99.6	99.7	100	106	98.2	97	100	95.5	> 10	> 10	> 10	> 10	> 10	0	0	0.1	0	0
COc1cc(OC)cc(-c2ccc3c(-c4ccc(F)cc4)n[nH]c3n2)c1 [APcK-110]	94.5	98.3	97.6	96.3	99.9	99.5	110	104	103	97.3	99.8	90.1	101	98.1	107	93.5	99.5	97.9	99.9	103	99.1	89.9	97.1	93.3	108	> 10	> 10	> 10	> 10	> 10	0	0	0	0	0
COc1ccc(-c2ccc3c(N4CCOC[C@@H]4C)nc(N4CCOC[C@@H]4C)nc3n2)cc1CO [AZD8055]	94.3	88.2	54	34.6	28.2	101	83.7	37.6	26.4	27.2	99.4	90.8	54.7	27.1	18.9	99	102	57.5	22.8	16.1	96.9	89.7	69.9	40.1	30.3	0.0545	0.0265	0.0808	0.101	0.123	18.8	23	19.7	20	15
C[C@@H](Nc1cc(F)cc(F)c1)c1cc(C(=O)N(C)C)cc2c(=O)cc(N3CCOCC3)oc12 [AZD8186]	90.7	78.2	84.1	75.3	48	88.4	100	82.8	76.4	47.8	101	92.2	96.5	92	75.7	96.2	97.3	96.8	87.9	76.9	96.8	95.6	89.2	78.9	75	0.2	0.6	> 10	> 10	> 10	8.8	6.4	1.5	1.7	3.8
CCCCC(=O)O[C@]1(C(=O)CO)[C@@H](C)C[C@H]2[C@@H]3CCC4=CC(=O)C=C[C@]4(C)[C@@]3(F)[C@@H](O)C[C@@]21C [BETAMETHASONE VALERATE]	103	86.2	113	110	96.1	105	101	95.2	93.7	117	107	114	90	107	76.4	95.8	96.2	95	94.8	92.4	105	102	95.4	91.1	95.6	> 10	> 10	> 10	> 10	> 10	0	0	0.6	0	0
